Values of other authors, collected in patent EP0398588A1, “Macrolide antibiotics” (ELI LILLY AND COMPANY, priority 1989, dated 1990).

Test system: rats
Details: rat, in vivo, po

Which MLD does the source give for `O=C1C[C@@H]2OCC=C3CN4CC[C@]56c7ccccc7N1[C@H]5[C@H]2[C@H]3C[C@H]46` [strychnine] here?
Its MLD is 5 mg/kg.
